Measured values published in patent US9999619B2, “Piperidin-4-yl azetidine derivatives as JAK1 inhibitors” (Incyte Corporation, priority 2010, dated 2018).

What was measured:
Assay type in all cases: biochemical
Jak2 (a.a. 828-1132) = Jak2 (a.a. 828-1132) (Homo sapiens (Human), UniProt O60674); assay: In vitro JAK kinase assay (HTRF, phosphorylation of a biotinylated peptide), JAK2; details: measured at 1 mM ATP
Summary of the method: (§1)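 N-terminal His-tagged catalytic domains, baculovirus-expressed in insect cells, phosphorylated a biotinylated peptide for 1 hr at room temperature. EDTA stop was followed by SA-APC and Eu-Py20 antibody for 40 minutes, with phosphopeptide read by HTRF.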

[1] = molecular target: human JAK1 (a.a. 837-1142); assay: In vitro JAK kinase assay (HTRF, phosphorylation of a biotinylated peptide), JAK1; details: ratio of JAK2 IC50 to JAK1 IC50, measured at 1 mM ATP
Summary of the method: as §1

[2] = molecular target: human JAK1 (a.a. 837-1142) (Homo sapiens, UniProt P23458); assay: as above; details: measured at 1 mM ATP
Summary of the method: as §1

Sequence of Jak2 (a.a. 828-1132) (O60674 828-1132): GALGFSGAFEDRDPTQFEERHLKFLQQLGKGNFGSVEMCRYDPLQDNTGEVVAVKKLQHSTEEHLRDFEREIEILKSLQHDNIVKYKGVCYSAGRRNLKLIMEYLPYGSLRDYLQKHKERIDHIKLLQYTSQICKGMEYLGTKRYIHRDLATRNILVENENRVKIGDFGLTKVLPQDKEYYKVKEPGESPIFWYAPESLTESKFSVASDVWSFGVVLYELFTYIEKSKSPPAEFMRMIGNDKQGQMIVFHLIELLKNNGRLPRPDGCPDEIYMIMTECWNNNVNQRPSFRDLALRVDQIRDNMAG

| IC50 (Jak2 (a.a. 828-1132)) [nM] | IC50 Ratio JAK2/JAK1 [1] | IC50 [2] [nM] | SMILES |
| --- | --- | --- | --- |
| 10 to 50 | 9.4 | ≤ 5 | N#CCC1(n2cc(-c3ncnc4[nH]ccc34)cn2)CN(C2CCN(C(=O)c3cc(Cl)cc(C(F)(F)F)n3)CC2)C1 [Example 53, {1-(1-{[4-chloro-6-(trifluoromethyl)pyridin-2-yl]carbonyl}piperidin-4-yl)-3-[4-(7H-pyrrolo[2,3-d]pyrimidin-4-yl)-1H-pyrazol-1-yl]azetidin-3-yl}acetonitrile] |
| 50 to 100 | 9.1 | 5 to 20 | N#CCC1(n2cc(-c3ncnc4[nH]ccc34)cn2)CN(C2CCN(C(=O)c3cc(F)c(F)c(F)c3F)CC2)C1 [Example 54, {3-[4-(7H-pyrrolo[2,3-d]pyrimidin-4-yl)-1H-pyrazol-1-yl]-1-[1-(2,3,4,5-tetrafluorobenzoyl)piperidin-4-yl]azetidin-3-yl}acetonitrile] |
| 10 to 50 | 7.5 | ≤ 5 | COc1ccc(C(=O)N2CCC(N3CC(CC#N)(n4cc(-c5ncnc6[nH]ccc56)cn4)C3)CC2)cc1C#N [Example 55, 5-[(4-{3-(cyanomethyl)-3-[4-(7H-pyrrolo[2,3-d]pyrimidin-4-yl)-1H-pyrazol-1-yl]azetidin-1-yl}piperidin-1-yl)carbonyl]-2-methoxybenzonitrile] |
| ≤ 10 | 8.8 | ≤ 5 | N#CCC1(n2cc(-c3ncnc4[nH]ccc34)cn2)CN(C2CCN(C(=O)c3c(F)c(F)cc(F)c3F)CC2)C1 [Example 56, {3-[4-(7H-pyrrolo[2,3-d]pyrimidin-4-yl)-1H-pyrazol-1-yl]-1-[1-(2,3,5,6-tetrafluorobenzoyl)piperidin-4-yl]azetidin-3-yl}acetonitrile] |
| > 100 | 3.3 | > 30 | N#CCC1(n2cc(-c3ncnc4[nH]ccc34)cn2)CN(C2CCN(C(=O)c3ccnc(C(F)(F)F)c3)CC2)C1 [Example 57, (3-[4-(7H-pyrrolo[2,3-d]pyrimidin-4-yl)-1H-pyrazol-1-yl]-1-{1-[2-(trifluoromethyl)isonicotinoyl]piperidin-4-yl}azetidin-3-yl)acetonitrile] |
| 10 to 50 | 5.0 | ≤ 5 | N#CCC1(n2cc(-c3ncnc4[nH]ccc34)cn2)CN(C2CCN(C(=O)c3ccc(F)c(O)c3)CC2)C1 [Example 58, {1-[1-(4-fluoro-3-hydroxybenzoyl)piperidin-4-yl]-3-[4-(7H-pyrrolo[2,3-d]pyrimidin-4-yl)-1H-pyrazol-1-yl]azetidin-3-yl}acetonitrile] |
| ≤ 10 | 4.6 | ≤ 5 | CN(C)c1ccc(C(=O)N2CCC(N3CC(CC#N)(n4cc(-c5ncnc6[nH]ccc56)cn4)C3)CC2)cc1C#N [Example 59, 5-[(4-{3-(cyanomethyl)-3-[4-(7H-pyrrolo[2,3-d]pyrimidin-4-yl)-1H-pyrazol-1-yl]azetidin-1-yl}piperidin-1yl)carbonyl]-2-(dimethylamino)benzonitrile] |
| ≤ 10 | 1.8 | ≤ 5 | CN(C)c1c(F)c(F)c(C(=O)N2CCC(N3CC(CC#N)(n4cc(-c5ncnc6[nH]ccc56)cn4)C3)CC2)c(F)c1F [Example 60, {1-{1-[4-(dimethylamino)-2,3,5,6-tetrafluorobenzoyl]piperidin-4-yl}-3-[4-(7H-pyrrolo[2,3-d]pyrimidin-4-yl)-1H-pyrazol-1-yl]azetidin-3-yl}acetonitrile] |
| 10 to 50 | 4.2 | 5 to 20 | N#CCC1(n2cc(-c3ncnc4[nH]ccc34)cn2)CN(C2CCN(C(=O)c3c(F)cncc3F)CC2)C1 [Example 61, {1-[1-(3,5-difluoroisonicotinoyl)piperidin-4-yl]-3-[4-(7H-pyrrolo[2,3-d]pyrimidin-4-yl)-1H-pyrazol-1-yl]azetidin-3-yl}acetonitrile] |
| ≤ 10 | 4.7 | ≤ 5 | N#CCC1(n2cc(-c3ncnc4[nH]ccc34)cn2)CN(C2CCN(C(=O)c3ccccc3F)CC2)C1 [Example 67, {1-[1-(2-fluorobenzoyl)piperidin-4-yl]-3-[4-(7H-pyrrolo[2,3-d]pyrimidin-4-yl)-1H-pyrazol-1-yl]azetidin-3-yl}acetonitrile] |
| 50 to 100 | 4.4 | 20 to 30 | N#CCC1(n2cc(-c3ncnc4[nH]ccc34)cn2)CN(C2CCN(C(=O)c3sc(C(F)(F)F)cc3O)CC2)C1 [Example 71, {1-{1-[3-hydroxy-5-(trifluoromethyl)-2-thienylcarbonyl]piperidin-4-yl}-3-[4-(7H-pyrrolo[2,3-d]pyrimidin-4-yl)-1H-pyrazol-1-yl]azetidin-3-yl}acetonitrile] |

The next lines start with the molecule.

| SMILES | IC50 (Jak2 (a.a. 828-1132)) [nM] | IC50 Ratio JAK2/JAK1 [1] | IC50 [2] [nM] |
| --- | --- | --- | --- |
| N#CCC1(n2cc(-c3ncnc4[nH]ccc34)cn2)CN(C2CCN(C(=O)c3cccc(F)c3F)CC2)C1 [Example 41, {1-[1-(2,3-difluorobenzoyl)piperidin-4-yl]-3-[4-(7H-pyrrolo[2,3-d]pyrimidin-4-yl)-1H-pyrazol-1-yl]azetidin-3-yl}acetonitrile] | ≤ 10 | 4.9 | ≤ 5 |
| N#CCC1(n2cc(-c3ncnc4[nH]ccc34)cn2)CN(C2CCN(C(=O)c3ccc(F)cc3F)CC2)C1 [Example 42, {1-[1-(2,4-difluorobenzoyl)piperidin-4-yl]-3-[4-(7H-pyrrolo[2,3-d]pyrimidin-4-yl)-1H-pyrazol-1-yl]azetidin-3-yl}acetonitrile] | ≤ 10 | 6.7 | ≤ 5 |
| N#CCC1(n2cc(-c3ncnc4[nH]ccc34)cn2)CN(C2CCN(C(=O)c3cc(F)ccc3F)CC2)C1 [Example 43, {1-[1-(2,5-difluorobenzoyl)piperidin-4-yl]-3-[4-(7H-pyrrolo[2,3-d]pyrimidin-4-yl)-1H-pyrazol-1-yl]azetidin-3-yl}acetonitrile] | 10 to 50 | 5.0 | ≤ 5 |
| N#CCC1(n2cc(-c3ncnc4[nH]ccc34)cn2)CN(C2CCN(C(=O)c3c(F)cccc3F)CC2)C1 [Example 44, {1-[1-(2,6-difluorobenzoyl)piperidin-4-yl]-3-[4-(7H-pyrrolo[2,3-d]pyrimidin-4-yl)-1H-pyrazol-1-yl]azetidin-3-yl}acetonitrile] | ≤ 10 | 2.9 | ≤ 5 |
| N#CCC1(n2cc(-c3ncnc4[nH]ccc34)cn2)CN(C2CCN(C(=O)c3c(F)cccc3C(F)(F)F)CC2)C1 [Example 45, {1-{1-[2-fluoro-6-(trifluoromethyl)benzoyl]piperidin-4-yl}-3-[4-(7H-pyrrolo[2,3-d]pyrimidin-4-yl)-1H-pyrazol-1-yl]azetidin-3-yl}acetonitrile] | 10 to 50 | 3.1 | ≤ 5 |
| N#CCC1(n2cc(-c3ncnc4[nH]ccc34)cn2)CN(C2CCN(C(=O)c3ccc(F)c(F)c3F)CC2)C1 [Example 46, {3-[4-(7H-pyrrolo[2,3-d]pyrimidin-4-yl)-1H-pyrazol-1-yl]-1-[1-(2,3,4-trifluorobenzoyl)piperidin-4-yl]azetidin-3-yl}acetonitrile] | 10 to 50 | 6.3 | ≤ 5 |
| N#CCC1(n2cc(-c3ncnc4[nH]ccc34)cn2)CN(C2CCN(C(=O)c3c(F)ccc(F)c3F)CC2)C1 [Example 47, {3-[4-(7H-pyrrolo[2,3-d]pyrimidin-4-yl)-1H-pyrazol-1-yl]-1-[1-(2,3,6-trifluorobenzoyl)piperidin-4-yl]azetidin-3-yl}acetonitrile] | ≤ 10 | 3.7 | ≤ 5 |
| N#CCC1(n2cc(-c3ncnc4[nH]ccc34)cn2)CN(C2CCN(C(=O)c3cc(F)c(F)cc3F)CC2)C1 [Example 48, {3-[4-(7H-pyrrolo[2,3-d]pyrimidin-4-yl)-1H-pyrazol-1-yl]-1-[1-(2,4,5-trifluorobenzoyl)piperidin-4-yl]azetidin-3-yl}acetonitrile] | 10 to 50 | 6.5 | ≤ 5 |
| N#CCC1(n2cc(-c3ncnc4[nH]ccc34)cn2)CN(C2CCN(C(=O)c3c(F)cc(F)cc3F)CC2)C1 [Example 49, {3-[4-(7H-pyrrolo[2,3-d]pyrimidin-4-yl)-1H-pyrazol-1-yl]-1-[1-(2,4,6-trifluorobenzoyl)piperidin-4-yl]azetidin-3-yl}acetonitrile] | ≤ 10 | 6.5 | ≤ 5 |
| COc1c(Br)cc(C(=O)N2CCC(N3CC(CC#N)(n4cc(-c5ncnc6[nH]ccc56)cn4)C3)CC2)cc1Br [Example 50, {1-[1-(3,5-dibromo-4-methoxybenzoyl)piperidin-4-yl]-3-[4-(7H-pyrrolo[2,3-d]pyrimidin-4-yl)-1H-pyrazol-1-yl]azetidin-3-yl}acetonitrile] | ≤ 10 | 6.9 | ≤ 5 |
| CN(C)c1ccc(C(=O)N2CCC(N3CC(CC#N)(n4cc(-c5ncnc6[nH]ccc56)cn4)C3)CC2)c(F)c1C#N [Example 51, 3-[(4-{3-(cyanomethyl)-3-[4-(7H-pyrrolo[2,3-d]pyrimidin-4-yl)-1H-pyrazol-1-yl]azetidin-1-yl}piperidin-1yl)carbonyl]-6-(dimethylamino)-2-fluorobenzonitrile] | ≤ 10 | 6.3 | ≤ 5 |
| N#CCC1(n2cc(-c3ncnc4[nH]ccc34)cn2)CN(C2CCN(C(=O)c3ccc(C(F)(F)F)c(F)c3)CC2)C1 [Example 52, {1-{1-[3-fluoro-4-(trifluoromethyl)benzoyl]piperidin-4-yl}-3-[4-(7H-pyrrolo[2,3-d]pyrimidin-4-yl)-1H-pyrazol-1-yl]azetidin-3-yl}acetonitrile] | 50 to 100 | 4.4 | 5 to 20 |
